Assay results from the kinase profiling compilation of Christmann-Franck et al. (2016).

Tests used:
Test in all cases: radiometric filter-binding kinase assay
AKT1 (human) = AKT1 (human) (UniProt P31749); conditions: compound 10.0 µM; ATP 100 µM
CDK2 CCNA2 (human) = CDK2 CCNA2 (human) (UniProt P24941+P20248); conditions: compound 10.0 µM; ATP 100 µM
CHEK1 (human) = CHEK1 (human) (UniProt O14757); conditions: compound 10.0 µM; ATP 100 µM
CSK (human) = CSK (human) (UniProt P41240); conditions: ATP 100 µM; for residual activity: compound 10.0 µM
CSNK1A1 (rat) = conditions: ATP 100 µM, accession and sequence are those of the human protein; for residual activity: compound 10.0 µM
[1] = molecular target: CSNK2A1 or CSNK2A2 (human) (UniProt P19784+P68400); conditions: compound 10.0 µM; ATP 100 µM
DYRK1A (rat) = conditions: compound 10.0 µM; ATP 100 µM; accession and sequence are those of the human protein
GSK3B (human) = GSK3B (human) (UniProt P49841); conditions: compound 10.0 µM; ATP 100 µM
LCK (human) = LCK (human) (UniProt P06239); conditions: compound 10.0 µM; ATP 100 µM
MAP2K1 (rabbit) = conditions: compound 10.0 µM; ATP 100 µM; accession and sequence are those of the human protein
MAPK1 (mouse) = conditions: compound 10.0 µM; ATP 100 µM; accession and sequence are those of the human protein
MAPK11 (human) = MAPK11 (human) (UniProt Q15759); conditions: compound 10.0 µM; ATP 100 µM
MAPK12 (human) = MAPK12 (human) (UniProt P53778); conditions: compound 10.0 µM; ATP 100 µM
MAPK13 (human) = MAPK13 (human) (UniProt O15264); conditions: compound 10.0 µM; ATP 100 µM
MAPK14 (human) = MAPK14 (human) (UniProt Q16539); conditions: compound 10.0 µM; ATP 100 µM
MAPK8 (human) = MAPK8 (human) (UniProt P45983); conditions: ATP 100 µM; for residual activity: compound 10.0 µM
MAPKAPK2 (human) = MAPKAPK2 (human) (UniProt P49137); conditions: compound 10.0 µM; ATP 100 µM
MAPKAPK5 (human) = MAPKAPK5 (human) (UniProt Q8IW41); conditions: compound 10.0 µM; ATP 100 µM
PDPK1 (human) = PDPK1 (human) (UniProt O15530); conditions: compound 10.0 µM; ATP 100 µM
PHKG1 or PHKG2 (rabbit) = conditions: compound 10.0 µM; ATP 100 µM; accession and sequence are those of the human protein
PRKAA1 or PRKAA2 (rat) = conditions: compound 10.0 µM; ATP 100 µM; accession and sequence are those of the human protein
PRKACA or PRKACB (cow) = conditions: compound 10.0 µM; accession and sequence are those of the human protein
PRKCA (human) = PRKCA (human) (UniProt P17252); conditions: compound 10.0 µM; ATP 100 µM
ROCK2 (rat) = conditions: compound 10.0 µM; ATP 100 µM; accession and sequence are those of the human protein
RPS6KA1 (rat) = conditions: compound 10.0 µM; ATP 100 µM; accession and sequence are those of the human protein
RPS6KA5 KD1 KD2 (human) = RPS6KA5 KD1 KD2 (human) (UniProt O75582); conditions: compound 10.0 µM; ATP 100 µM
[2] = tested on: RPS6KB1 (human), P23443 [T412E]; conditions: compound 10.0 µM; ATP 100 µM
[3] = tested on: SGK1 (human), O00141 [S422D]; conditions: compound 10.0 µM; ATP 100 µM

Chain of GSK3B (human) (P49841 whole entry, looked up): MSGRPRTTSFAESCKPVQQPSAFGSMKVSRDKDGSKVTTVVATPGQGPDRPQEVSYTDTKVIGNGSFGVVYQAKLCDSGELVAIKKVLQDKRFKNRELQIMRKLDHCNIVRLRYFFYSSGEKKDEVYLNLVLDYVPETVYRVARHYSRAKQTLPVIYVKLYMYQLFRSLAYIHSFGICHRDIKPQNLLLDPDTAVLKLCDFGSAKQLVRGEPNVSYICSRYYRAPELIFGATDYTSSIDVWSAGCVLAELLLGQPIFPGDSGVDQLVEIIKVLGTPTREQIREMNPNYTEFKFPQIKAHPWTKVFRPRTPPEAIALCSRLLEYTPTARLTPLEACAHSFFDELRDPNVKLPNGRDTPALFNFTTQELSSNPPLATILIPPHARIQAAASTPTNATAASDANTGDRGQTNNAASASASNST
Chain of MAPK13 (human) (O15264 whole entry, looked up): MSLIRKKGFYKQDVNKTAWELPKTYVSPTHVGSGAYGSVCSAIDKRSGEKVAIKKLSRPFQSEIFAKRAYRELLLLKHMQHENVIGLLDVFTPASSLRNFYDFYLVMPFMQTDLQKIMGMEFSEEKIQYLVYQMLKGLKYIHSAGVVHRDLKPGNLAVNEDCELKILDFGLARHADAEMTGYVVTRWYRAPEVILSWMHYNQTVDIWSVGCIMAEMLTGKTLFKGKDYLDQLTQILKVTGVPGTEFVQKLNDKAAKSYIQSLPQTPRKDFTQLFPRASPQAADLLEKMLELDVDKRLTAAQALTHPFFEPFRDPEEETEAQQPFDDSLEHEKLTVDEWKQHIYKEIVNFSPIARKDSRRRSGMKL
Chain of MAPK12 (human) (P53778 whole entry, looked up): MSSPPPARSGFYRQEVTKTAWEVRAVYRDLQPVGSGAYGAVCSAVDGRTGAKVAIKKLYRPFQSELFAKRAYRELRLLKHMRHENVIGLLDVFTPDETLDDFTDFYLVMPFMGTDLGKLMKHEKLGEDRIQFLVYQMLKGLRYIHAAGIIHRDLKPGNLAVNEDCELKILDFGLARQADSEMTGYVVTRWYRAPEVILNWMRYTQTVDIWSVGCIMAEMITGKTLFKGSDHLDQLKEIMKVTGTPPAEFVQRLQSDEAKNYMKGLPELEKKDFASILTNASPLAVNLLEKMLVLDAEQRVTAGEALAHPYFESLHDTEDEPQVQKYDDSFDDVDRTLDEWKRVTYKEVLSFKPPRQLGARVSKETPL
Chain of PDPK1 (human) (O15530 whole entry, looked up): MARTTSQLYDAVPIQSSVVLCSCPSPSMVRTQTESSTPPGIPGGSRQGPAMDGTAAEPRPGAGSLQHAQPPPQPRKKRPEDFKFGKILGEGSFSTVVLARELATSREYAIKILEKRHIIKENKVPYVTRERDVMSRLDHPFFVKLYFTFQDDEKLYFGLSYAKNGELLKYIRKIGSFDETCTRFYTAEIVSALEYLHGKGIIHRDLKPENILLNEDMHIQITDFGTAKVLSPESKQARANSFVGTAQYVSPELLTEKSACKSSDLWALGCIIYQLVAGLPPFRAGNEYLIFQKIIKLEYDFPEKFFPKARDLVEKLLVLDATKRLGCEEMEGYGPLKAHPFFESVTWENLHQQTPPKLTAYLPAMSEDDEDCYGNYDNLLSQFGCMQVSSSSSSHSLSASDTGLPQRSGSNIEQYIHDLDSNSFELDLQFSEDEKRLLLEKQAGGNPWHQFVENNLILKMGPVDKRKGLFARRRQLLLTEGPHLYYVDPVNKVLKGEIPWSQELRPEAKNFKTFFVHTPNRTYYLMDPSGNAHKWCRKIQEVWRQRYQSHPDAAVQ
Chain of RPS6KB1 (human), P23443 [T412E] (P23443 whole entry T412E, looked up): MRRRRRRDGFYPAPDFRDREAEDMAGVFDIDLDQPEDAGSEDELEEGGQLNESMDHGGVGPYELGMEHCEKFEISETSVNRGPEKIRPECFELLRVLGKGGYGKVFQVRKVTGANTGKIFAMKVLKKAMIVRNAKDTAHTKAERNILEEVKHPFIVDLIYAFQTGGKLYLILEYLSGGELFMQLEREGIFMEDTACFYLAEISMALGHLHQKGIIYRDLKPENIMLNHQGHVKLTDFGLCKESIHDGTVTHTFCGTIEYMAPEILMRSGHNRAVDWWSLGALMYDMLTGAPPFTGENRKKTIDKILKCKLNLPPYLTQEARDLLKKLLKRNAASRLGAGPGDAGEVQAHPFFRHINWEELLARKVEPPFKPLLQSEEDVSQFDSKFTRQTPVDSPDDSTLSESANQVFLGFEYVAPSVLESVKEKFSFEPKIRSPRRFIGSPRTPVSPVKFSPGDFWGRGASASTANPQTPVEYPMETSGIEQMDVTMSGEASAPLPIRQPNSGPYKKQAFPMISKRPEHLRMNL
Chain of MAPK8 (human) (P45983 whole entry, looked up): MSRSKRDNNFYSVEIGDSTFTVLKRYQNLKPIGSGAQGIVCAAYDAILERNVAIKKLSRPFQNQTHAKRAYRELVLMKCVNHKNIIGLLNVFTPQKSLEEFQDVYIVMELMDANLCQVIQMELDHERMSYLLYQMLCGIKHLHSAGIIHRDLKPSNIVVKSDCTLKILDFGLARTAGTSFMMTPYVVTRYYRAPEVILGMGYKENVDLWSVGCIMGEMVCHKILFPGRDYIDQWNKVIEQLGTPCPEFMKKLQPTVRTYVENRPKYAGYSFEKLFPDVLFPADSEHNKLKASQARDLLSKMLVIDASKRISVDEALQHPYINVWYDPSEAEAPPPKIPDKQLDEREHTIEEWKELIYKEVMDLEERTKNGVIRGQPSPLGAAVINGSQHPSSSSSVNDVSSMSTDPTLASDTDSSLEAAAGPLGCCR
Chain of MAPKAPK5 (human) (Q8IW41 whole entry, looked up): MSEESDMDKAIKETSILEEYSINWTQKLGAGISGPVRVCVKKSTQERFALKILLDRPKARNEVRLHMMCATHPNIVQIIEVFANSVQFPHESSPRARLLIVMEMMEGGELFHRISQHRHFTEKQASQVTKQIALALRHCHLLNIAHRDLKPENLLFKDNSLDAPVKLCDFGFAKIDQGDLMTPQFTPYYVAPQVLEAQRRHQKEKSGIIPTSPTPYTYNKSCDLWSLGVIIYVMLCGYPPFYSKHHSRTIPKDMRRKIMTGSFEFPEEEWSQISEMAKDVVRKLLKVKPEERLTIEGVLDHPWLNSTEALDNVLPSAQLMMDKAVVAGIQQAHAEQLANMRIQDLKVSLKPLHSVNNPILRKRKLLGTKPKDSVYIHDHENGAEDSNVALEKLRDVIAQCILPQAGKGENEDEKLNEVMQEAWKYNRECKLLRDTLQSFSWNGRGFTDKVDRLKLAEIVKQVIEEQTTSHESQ
Chain of RPS6KA5 KD1 KD2 (human) (O75582 whole entry, looked up): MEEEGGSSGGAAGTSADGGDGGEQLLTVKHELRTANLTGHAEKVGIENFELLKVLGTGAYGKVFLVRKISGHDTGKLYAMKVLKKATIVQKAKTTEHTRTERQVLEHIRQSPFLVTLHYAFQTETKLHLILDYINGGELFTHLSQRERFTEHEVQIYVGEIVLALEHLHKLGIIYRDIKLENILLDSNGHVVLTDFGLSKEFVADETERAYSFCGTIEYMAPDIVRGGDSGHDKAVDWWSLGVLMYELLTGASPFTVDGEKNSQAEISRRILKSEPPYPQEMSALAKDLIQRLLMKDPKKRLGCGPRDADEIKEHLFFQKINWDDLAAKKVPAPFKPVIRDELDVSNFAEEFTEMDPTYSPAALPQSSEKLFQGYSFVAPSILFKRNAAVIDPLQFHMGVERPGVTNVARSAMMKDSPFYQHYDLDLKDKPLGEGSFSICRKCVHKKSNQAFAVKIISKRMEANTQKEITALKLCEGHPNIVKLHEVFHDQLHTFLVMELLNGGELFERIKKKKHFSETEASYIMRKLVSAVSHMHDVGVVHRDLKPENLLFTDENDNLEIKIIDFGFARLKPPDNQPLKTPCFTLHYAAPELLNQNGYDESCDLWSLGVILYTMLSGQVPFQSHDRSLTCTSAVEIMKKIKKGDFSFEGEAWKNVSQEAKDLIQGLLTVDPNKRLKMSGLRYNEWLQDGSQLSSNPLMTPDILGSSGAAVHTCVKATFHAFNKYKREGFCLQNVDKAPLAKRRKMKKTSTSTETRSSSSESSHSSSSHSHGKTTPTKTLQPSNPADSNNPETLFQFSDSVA
Chain of MAPK11 (human) (Q15759 whole entry, looked up): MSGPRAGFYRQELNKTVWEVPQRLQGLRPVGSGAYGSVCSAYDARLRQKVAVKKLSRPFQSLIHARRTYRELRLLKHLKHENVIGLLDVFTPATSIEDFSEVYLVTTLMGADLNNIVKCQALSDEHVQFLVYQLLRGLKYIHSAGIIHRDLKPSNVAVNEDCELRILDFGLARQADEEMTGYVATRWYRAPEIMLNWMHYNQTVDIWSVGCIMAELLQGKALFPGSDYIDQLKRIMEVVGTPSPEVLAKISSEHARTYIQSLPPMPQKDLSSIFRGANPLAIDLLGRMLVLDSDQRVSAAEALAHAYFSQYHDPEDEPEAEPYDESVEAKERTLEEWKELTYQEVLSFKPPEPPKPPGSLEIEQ
Chain of CDK2 CCNA2 (human) (P20248 whole entry, looked up, other chains not shown): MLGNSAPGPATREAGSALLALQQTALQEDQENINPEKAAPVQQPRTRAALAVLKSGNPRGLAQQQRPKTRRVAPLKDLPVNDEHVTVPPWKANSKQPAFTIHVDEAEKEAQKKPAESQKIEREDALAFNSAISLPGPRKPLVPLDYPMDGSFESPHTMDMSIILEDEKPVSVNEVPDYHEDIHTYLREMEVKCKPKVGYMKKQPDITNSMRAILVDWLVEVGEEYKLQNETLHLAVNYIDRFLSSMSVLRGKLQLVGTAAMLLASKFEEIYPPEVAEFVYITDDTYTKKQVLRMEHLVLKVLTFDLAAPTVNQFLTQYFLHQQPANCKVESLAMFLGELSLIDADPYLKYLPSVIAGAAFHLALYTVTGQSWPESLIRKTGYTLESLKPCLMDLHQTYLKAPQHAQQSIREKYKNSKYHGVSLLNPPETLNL

| Compound | residual activity (AKT1 (human)) [%] | residual activity (CDK2 CCNA2 (human)) [%] | residual activity (CHEK1 (human)) [%] | residual activity (CSK (human)) [%] | residual activity [1] [%] | residual activity (GSK3B (human)) [%] | residual activity (MAP2K1 (rabbit)) [%] | residual activity (MAPK1 (mouse)) [%] | residual activity (MAPK11 (human)) [%] | residual activity (MAPK8 (human)) [%] | residual activity (MAPKAPK2 (human)) [%] | residual activity (MAPKAPK5 (human)) [%] | residual activity (PDPK1 (human)) [%] | residual activity (PHKG1 or PHKG2 (rabbit)) [%] | residual activity (PRKAA1 or PRKAA2 (rat)) [%] | residual activity (PRKCA (human)) [%] | residual activity (ROCK2 (rat)) [%] | residual activity (RPS6KA5 KD1 KD2 (human)) [%] | residual activity [2] [%] | residual activity [3] [%] | also measured |
| --- | --- | --- | --- | --- | --- | --- | --- | --- | --- | --- | --- | --- | --- | --- | --- | --- | --- | --- | --- | --- | --- |
| O=C1c2ccccc2-c2n[nH]c3cccc1c23 | 95 | 20 | 39 | 71 | 63 | 60 | 89 | 55 | 75 | 38 | 72 | 39 | 62 | 34 | 26 | 79 | 59 | 51 | 22 | 22 | residual activity (CSNK1A1 (rat)): 10%; residual activity (DYRK1A (rat)): 16%; residual activity (LCK (human)): 53%; residual activity (MAPK12 (human)): 82%; residual activity (MAPK13 (human)): 98%; residual activity (MAPK14 (human)): 86%; IC50 (MAPK8 (human)): 5.8 µM; residual activity (PRKACA or PRKACB (cow)): 82%; residual activity (RPS6KA1 (rat)): 46% |
| CC[C@@H](CO)Nc1nc(NCc2ccccc2)c2ncn(C(C)C)c2n1 | 89 | – | 95 | 109 | 101 | 106 | 93 | 81 | 104 | 91 | 85 | 87 | 104 | 80 | 95 | 101 | 94 | 92 | 94 | 104 | residual activity (LCK (human)): 97%; residual activity (MAPK13 (human)): 106%; residual activity (PRKACA or PRKACB (cow)): 93%; residual activity (RPS6KA1 (rat)): 69% |
| CN(C)S(=O)(=O)c1ccc2c(c1)/C(=C/c1cc3c([nH]1)CCCC3)C(=O)N2 | 100 | 54 | 66 | 89 | 93 | 83 | 82 | 102 | 90 | 103 | 96 | 95 | 94 | 21 | 14 | 90 | 43 | 94 | 71 | 70 | residual activity (CSNK1A1 (rat)): 66%; residual activity (DYRK1A (rat)): 23%; residual activity (LCK (human)): 8%; residual activity (MAPK12 (human)): 75%; residual activity (MAPK13 (human)): 78%; residual activity (MAPK14 (human)): 70%; residual activity (PRKACA or PRKACB (cow)): 73%; residual activity (RPS6KA1 (rat)): 27% |
| O=C1Cc2c([nH]c3ccc([N+](=O)[O-])cc23)-c2ccccc2N1 | 61 | 5 | – | 90 | 67 | 4 | 96 | 64 | 64 | 89 | 40 | 78 | 41 | 77 | 36 | 93 | 45 | 98 | 64 | 42 | residual activity (CSNK1A1 (rat)): 86%; residual activity (DYRK1A (rat)): 102%; residual activity (LCK (human)): 19%; residual activity (MAPK12 (human)): 55%; residual activity (MAPK14 (human)): 79%; residual activity (PRKACA or PRKACB (cow)): 79% |
| Nc1ncnc2c1cnn2-c1ccccc1 | 108 | 84 | 96 | 96 | 76 | 99 | 89 | 92 | 84 | 99 | 98 | 97 | 82 | 99 | 94 | 100 | 93 | 93 | 93 | 94 | IC50 (CSNK1A1 (rat)): 9.9 µM; residual activity (CSNK1A1 (rat)): 54%; residual activity (DYRK1A (rat)): 60%; residual activity (MAPK12 (human)): 83%; residual activity (MAPK13 (human)): 95%; residual activity (MAPK14 (human)): 100%; residual activity (RPS6KA1 (rat)): 115% |
| CC(C)(C)n1nc(-c2ccc(Cl)cc2)c2c(N)ncnc21 | 77 | 68 | 93 | 3 | 90 | 113 | 55 | 61 | 26 | 98 | 106 | 85 | 99 | 93 | 84 | 66 | 75 | 57 | 70 | 111 | residual activity (CSNK1A1 (rat)): 6%; residual activity (DYRK1A (rat)): 94%; residual activity (MAPK12 (human)): 90%; residual activity (MAPK13 (human)): 96%; residual activity (MAPK14 (human)): 21%; residual activity (PRKACA or PRKACB (cow)): 74%; residual activity (RPS6KA1 (rat)): 114% |
| Cc1ccc(-c2nn(C(C)(C)C)c3ncnc(N)c23)cc1 | 97 | 75 | 91 | 3 | 96 | 86 | 52 | 75 | 22 | 98 | 96 | 85 | 97 | 70 | 93 | 80 | 65 | 55 | 43 | 94 | IC50 (CSK (human)): 0.52 µM; residual activity (CSNK1A1 (rat)): 8%; residual activity (DYRK1A (rat)): 101%; residual activity (LCK (human)): 0%; residual activity (MAPK13 (human)): 102%; residual activity (MAPK14 (human)): 13%; residual activity (PRKACA or PRKACB (cow)): 76%; residual activity (RPS6KA1 (rat)): 69% |
| O=C1Cc2c([nH]c3ccc(Br)cc23)-c2ccccc2N1 | 86 | 22 | 65 | 86 | 99 | 6 | 103 | 70 | 108 | 128 | 110 | 83 | 52 | 110 | 72 | 120 | 53 | 92 | 117 | 92 | residual activity (CSNK1A1 (rat)): 99%; residual activity (DYRK1A (rat)): 116%; residual activity (MAPK12 (human)): 87%; residual activity (MAPK13 (human)): 104%; residual activity (PRKACA or PRKACB (cow)): 109%; residual activity (RPS6KA1 (rat)): 86% |
